Several values for one entry are separate records, joined by “and”; a condition that tells them apart may be missing. Equal values may be shown once.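 All cell lines were grown in 96-well plates and treated with compound for 48 hours. GI50 is the concentration that inhibits growth by half. At the TGI there is no net growth.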 Where only a bound is given, the exact number is not on record here.

This is an account of results in PubChem BioAssay (NCI).

Among the test systems are DMS 273 small cell lung; DLD-1 colon; KM20L2 colon; SNB-78 CNS; LXFL 529 NSCLC; HOP-18 NSCLC; M19-MEL melanoma; DMS 114 small cell lung; RXF-631 renal.
What all share (test): NCI tumour cell line growth inhibition, 48 h

Consider `CCCCCCCCCCCCCCCC(=O)OCC1OC(n2ccc(N)nc2=O)C(O)C1O` (centres undefined), for which the TGI in the experiment on DMS 273 small cell lung, in the experiment with DLD-1 colon, in the experiment on KM20L2 colon, in the experiment with SNB-78 CNS, in the experiment on LXFL 529 NSCLC and in the experiment with HOP-18 NSCLC was over 100 µM throughout. This molecule gave a TGI with M19-MEL melanoma of over 100 µM.

With `O=C1/C(=C/c2ccccc2)CN(C(=O)Oc2ccc([N+](=O)[O-])cc2)C/C1=C\c1ccccc1`, the GI50 in the experiment with DMS 273 small cell lung was 1.22 µM; in the experiment with DMS 114 small cell lung, 1.68 µM; in the experiment with DLD-1 colon, 1.2 µM; in the experiment with KM20L2 colon it was 3.9 µM; in the experiment with LXFL 529 NSCLC, 1.41 µM; in the experiment on M19-MEL melanoma it was 1.26 µM. The TGI was 2.94 µM and 3.17 µM in the experiment on DMS 273 small cell lung; 4.63 µM and 3.84 µM in the experiment on DMS 114 small cell lung; 4.83 µM and 3.45 µM in the experiment on DLD-1 colon; 8.2 µM in the experiment with KM20L2 colon; 28.5 µM with SNB-78 CNS; 5.41 µM and 2.9 µM with LXFL 529 NSCLC. Also, in the experiment on M19-MEL melanoma, the TGI was 3.56 µM and 2.75 µM.

Consider `CCOC(=O)NNC(=O)NC12CC3CC(CC(C3)C1)C2`, for which the TGI with DMS 273 small cell lung, in the experiment on DMS 114 small cell lung, in the experiment with DLD-1 colon, in the experiment with KM20L2 colon, in the experiment on SNB-78 CNS and in the experiment on LXFL 529 NSCLC was over 100 µM each time. Besides, the TGI in the experiment with HOP-18 NSCLC and in the experiment on M19-MEL melanoma was over 100 µM each time.

Regarding `O=C1CC2Sc3ccccc3N=C2N1c1ccc(Cl)cc1Cl` (centres undefined), the TGI with DMS 114 small cell lung, in the experiment with DLD-1 colon, with KM20L2 colon, with SNB-78 CNS, in the experiment with RXF-631 renal and in the experiment with LXFL 529 NSCLC was over 100 µM in each case. For the same molecule, the TGI with HOP-18 NSCLC and with M19-MEL melanoma was over 100 µM each time.

On to `N#CC(=C=[N-])[n+]1ccc(Cl)cc1`, for which the TGI in the experiment with DMS 273 small cell lung was 46.2 µM; with DMS 114 small cell lung, 26.9 µM; in the experiment on DLD-1 colon, 24.4 µM; in the experiment with KM20L2 colon, 65.4 µM; with SNB-78 CNS it was 42.4 µM; in the experiment on RXF-631 renal it was 52.5 µM. For the same molecule, the figures for the TGI in the experiment on LXFL 529 NSCLC and in the experiment on M19-MEL melanoma were 27.6 µM and 27.8 µM, respectively.

For `Cc1cccc(N2C(=O)/C(=C/c3ccc(N(CCC#N)CCC#N)cc3C)N=C2c2cc([N+](=O)[O-])ccc2Cl)c1`, the TGI with DMS 273 small cell lung, in the experiment on DMS 114 small cell lung, in the experiment with DLD-1 colon, in the experiment with RXF-631 renal, in the experiment on LXFL 529 NSCLC and in the experiment with HOP-18 NSCLC was over 100 µM throughout. For the same molecule, the TGI with M19-MEL melanoma was over 100 µM.

As to `C/C(=N/Nc1ccc([N+](=O)[O-])cc1[N+](=O)[O-])C(CC(C(=O)Nc1ccccc1C)/C(C)=N\Nc1ccc([N+](=O)[O-])cc1[N+](=O)[O-])C(=O)Nc1ccccc1C` (centres undefined), the TGI in the experiment on DMS 273 small cell lung is 41.7 µM; with DMS 114 small cell lung it was 17.7 µM; with DLD-1 colon, over 100 µM; in the experiment on KM20L2 colon, over 88.3 µM; with SNB-78 CNS, 52.2 µM; in the experiment on LXFL 529 NSCLC it was 27.9 µM. The values for the TGI in the experiment on HOP-18 NSCLC and in the experiment on M19-MEL melanoma were 28.9 µM and 28.1 µM, respectively.

Turning to `Cc1ns/c(=N\C(=S)N(C)C)n1C`, the TGI in the experiment on DMS 273 small cell lung, in the experiment with DMS 114 small cell lung, in the experiment with DLD-1 colon, in the experiment with KM20L2 colon, with SNB-78 CNS and in the experiment with RXF-631 renal was over 100 µM in each case. The TGI with LXFL 529 NSCLC and with HOP-18 NSCLC was over 100 µM in each case.

Regarding `CCN1CC2(C)CC[C@@H](OC)C34[C@@H]2[C@H](OC(C)=O)C2(OCO[C@@]25C[C@H](OC)C2C[C@]3(O)[C@@H]5[C@H]2O)[C@H]14`, the TGI in the experiment on DMS 114 small cell lung, with DLD-1 colon, in the experiment on KM20L2 colon, with SNB-78 CNS, in the experiment on LXFL 529 NSCLC and in the experiment with M19-MEL melanoma was over 100 µM in each case.

As to `COc1ccccc1NC(=O)C(=O)C1C(=O)Nc2ccccc2S1=O` (centres undefined), the TGI with DMS 273 small cell lung, in the experiment on DMS 114 small cell lung, with DLD-1 colon, in the experiment with KM20L2 colon, in the experiment with SNB-78 CNS and with RXF-631 renal was over 100 µM in each case. In addition, the TGI with LXFL 529 NSCLC, in the experiment with HOP-18 NSCLC and in the experiment with M19-MEL melanoma was over 100 µM each time.

As for `CC(C)=C1CCC(CN2CCCC2)C1=O` (centres undefined), the TGI was over 100 µM with DMS 273 small cell lung; 37 µM in the experiment with DMS 114 small cell lung; 33.7 µM with DLD-1 colon; over 100 µM with KM20L2 colon; over 100 µM with SNB-78 CNS; over 100 µM in the experiment on RXF-631 renal. Besides, the TGI worked out at 32.2 µM in the experiment on LXFL 529 NSCLC, 32.7 µM in the experiment on HOP-18 NSCLC and 37.4 µM in the experiment on M19-MEL melanoma.

With `COc1cc(CC(=O)c2ccc3c(c2)OCO3)cc(OC)c1OC`, the TGI in the experiment on DMS 114 small cell lung is 92.7 µM; with DLD-1 colon, over 100 µM; with KM20L2 colon, over 100 µM; in the experiment on SNB-78 CNS, over 100 µM; with RXF-631 renal it was over 100 µM; in the experiment with LXFL 529 NSCLC it was over 100 µM. The TGI in the experiment with HOP-18 NSCLC and with M19-MEL melanoma was over 100 µM throughout.
